Values quoted from earlier work, collected in patent US20250369953A1, “METHODS FOR MEASURING CIRCADIAN RHYTHM FACTORS” (priority 2024, published 2025).

In the case of `COc1ccc2[nH]cc(CCNC(C)=O)c2c1` [Melatonin, N-acetyl-5-methoxytryptamine], the peak plasma concentrations (endogenous, nighttime sleep, occurring at approximately 02:00 am) is given as “approximately 70 μg/ml”, the metabolic clearance (healthy young adult humans) is given as “approximately 1 liter per minute” and the volume of distribution (healthy young adult humans) is given as “approximately 40 liters”.
